Results as given in patent US20180049425A1, “Bait Composition” (priority 2016, published 2018).

How the values were obtained:
feral pigs [1] = conditions: bait containing 0.13% warfarin by weight of the bait; McIlroy et al.; cited from earlier work
feral pigs [2] = conditions: bait containing 0.09% warfarin by weight of the bait; Saunders et al.; cited from earlier work
feral hogs = assay: studies using the instant feral hog control system with low dose warfarin bait; assay type: in vivo, Sus scrofa
From the text: As to particular studies, death of the feral hogs (2) occurred within not greater than about five days following exposure to the bait (3).

[3] = bait with about 0.005% warfarin by weight of the bait
[4] = bait with about 0.01% warfarin by weight of the bait

Compound: CC(=O)CC(c1ccccc1)c1c(O)c2ccccc2oc1=O (stereo not drawn) [warfarin]
- feral pigs dying (feral pigs [1]): 30 of 32
- time of dying after bait distribution (mean±s.e.) (feral pigs [1]): 9.7 ± 0.4 days
- first death recorded after bait distribution (feral pigs [2]): six
- death of the feral hogs following exposure to the bait (feral hogs; [3]): ten
- mortality rate (feral hogs; [3]): 100%
- death of the feral hogs following exposure to the bait, particular studies (feral hogs; [3]): five
- death of the feral hogs following exposure to the bait (feral hogs; [4]): ten
- mortality rate (feral hogs; [4]): 100%
- death of the feral hogs following exposure to the bait, particular studies (feral hogs; [4]): five
